Results from the supplement of paper PMC11451515.

Tests used:
Experiment in all cases: AUC of viability dose-response curve (% viability x log10 dose units); higher = less sensitive
Settings in all cases: 48 h
[1] = system: NOMO1
Summary of the method: (§1)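 Leukemia cells adapted to each medium were seeded in 1536-well plates (500 or 1000 cells/well) and given library compounds in DMSO for 48 h at 37°C. The 11 threefold doses spanned 47 μM to 0.79 nM, and CellTiter-Glo One luminescence was normalised per plate to DMSO and cell-free wells before four-parameter log-logistic fitting on log10 dose. Area under the curve was integrated with the trapezoidal rule, scaling curves above full viability and removing curves that failed quality control.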

[2] = system: P12-Ichikawa
Summary of the method: as §1

[3] = system: SEM cells
Summary of the method: as §1

[4] = RPMI 5 mM glucose + 10% dialyzed FBS

Row | Structure (SMILES) | AUC of viability dose-response curve ([1]; HPLM + 10% dialyzed FBS) | AUC of viability dose-response curve ([1]; RPMI 5 mM glucose + 10% FBS) | AUC of viability dose-response curve [1, 4] | AUC of viability dose-response curve ([2]; HPLM + 10% dialyzed FBS) | AUC of viability dose-response curve ([2]; RPMI 5 mM glucose + 10% FBS) | AUC of viability dose-response curve [2, 4] | AUC of viability dose-response curve ([3]; HPLM + 10% dialyzed FBS) | AUC of viability dose-response curve ([3]; RPMI 5 mM glucose + 10% FBS) | AUC of viability dose-response curve [3, 4]
1 | CCc1nc(N)nc(N)c1-c1ccc(Cl)cc1 | 381 | 421 | 427 | 352 | 427 | 389 | 381 | 392 | 399
2 | C[C@]12CC[C@H]3[C@@H](CC[C@@]45O[C@@H]4C(O)=C(C#N)C[C@]35C)[C@@H]1CC[C@@H]2O | 457 | 458 | 456 | 454 | 454 | 454 | 446 | 363 | 416
3 | Cn1cnc(N)c2ncnc1-2 | 375 | 406 | 398 | 396 | 395 | 399 | 367 | 326 | 362
4 | Cc1cnc(Nc2cccc(CN3CCOCC3)c2)nc1Nc1cccc([S+](=O)([O-])NC(C)(C)C)c1 | – | – | – | – | – | – | 329 | 345 | 308
5 | CCCC[S+](=N)([O-])CCC(N)C(=O)O (stereo unspecified) | 441 | 462 | 461 | 453 | 469 | 465 | 459 | 462 | 458
6 | CN(C[C@@H]1COCCO1)[S+]([O-])(=O)NC2=CC3=C(C=C2)\C=C/C4=C(C=C(C=N4)C5=C[N](C)N=C5)C3=O | 324 | 371 | 355 | 379 | 374 | 357 | 314 | 301 | 292
7 | CC(C)[C@H](O)C(=O)N[C@@H](C)C(=O)N[C@@H]1C(=O)N(C)CCc2ccccc21 | 444 | 472 | 460 | 447 | 450 | 423 | 431 | 441 | 393
8 | Nc1nccc(-c2ccc3noc(-c4ccc(Cl)cc4)c3c2)n1 | 449 | 464 | 469 | 468 | 466 | 470 | 425 | 457 | 462
9 | CC(C)(Sc1cc(C(C)(C)C)c(O)c(C(C)(C)C)c1)Sc1cc(C(C)(C)C)c(O)c(C(C)(C)C)c1 | 449 | 428 | 436 | 445 | 414 | 405 | 385 | 415 | 409
10 | O=C(CCCN1CCC(O)(c2ccc(Cl)cc2)CC1)c1ccc(F)cc1 | 467 | 471 | 470 | 459 | 466 | 470 | – | – | –
11 | COc1ccc(-n2c(C)c([N+](=O)[O-])c3ccc(O)cc32)cc1 | 452 | 476 | 446 | 446 | 465 | 464 | 469 | 453 | 468
12 | COc1cc(N2CCN(C)CC2)ccc1Nc1nc(N)c(C(=O)c2c(Cl)cccc2Cl)s1 | 456 | 467 | 467 | 457 | 454 | 456 | 425 | 422 | 444
13 | C/C=C(\C)C(=O)N[C@@H](c1ccccc1)[C@@H](O)C(=O)O[C@H]1C[C@@]2(O)[C@@H](OC(=O)c3ccccc3)[C@@H]3[C@]4(OC(C)=O)CO[C@@H]4C[C@H](O)[C@@]3(C)C(=O)[C@H](OC(C)=O)C(=C1C)C2(C)C | – | – | – | 102 | 85.3 | 130 | 104 | 85.3 | 87.7
14 | COc1cccc(N(C)C(=S)Oc2ccc3c(c2)CCCC3)n1 | 465 | 441 | 444 | 469 | 470 | 455 | 389 | 445 | 452
15 | O=C(NOCC1CC1)c1ccc(F)c(F)c1Nc1ccc(I)cc1Cl | 362 | 389 | 382 | 447 | 429 | 450 | 455 | 440 | 434
16 | CC(C)[C@H]1C(=O)N[C@H](CO)Cc2c[nH]c3cccc(c23)N1C | 393 | 404 | 405 | 446 | 411 | 401 | 396 | 379 | 442
17 | OC[C@H]1OC(O)C[C@@H](O)[C@@H]1O (stereo partly specified) | 463 | 466 | 466 | 463 | 470 | 475 | 439 | 441 | 447
18 | CC[C@H](C)C(=O)O[C@H]1C[C@@H](C)\C=C2\C=C/[C@H](C)[C@H](CC[C@@H]3C[C@@H](O)CC(=O)O3)[C@@H]12 | 437 | 411 | 411 | 415 | 373 | 379 | 384 | 386 | 408
19 | COCC(=O)NC/C=C/c1ccc2ncnc(Nc3ccc(Oc4ccc(C)nc4)c(C)c3)c2c1 | 329 | 372 | 384 | 464 | 437 | 436 | 430 | 460 | 412
20 | Cc1cccc(-c2[nH]c(C(C)(C)C)nc2-c2ccc3nccnc3c2)n1 | 460 | 430 | 455 | 459 | 458 | 424 | 444 | 383 | 443
21 | CC(C)(C)NCC(O)c1ccc(O)c(CO)c1 (stereo unspecified) | 388 | 420 | 399 | 438 | 431 | 442 | 474 | 461 | 470
22 | CN(C)CCc1c[nH]c2ccc(Cn3cncn3)cc12 | 318 | 277 | 311 | 329 | 312 | 286 | 267 | 226 | 257
23 | COC(=O)[C@H](Cc1ccccc1)NC(=O)[C@@H](N)CC(=O)O | 453 | 461 | 437 | 454 | 459 | 458 | 476 | 472 | 467
24 | CC(C)C[C@H](CC(=O)O)C(=O)N[C@@H](Cc1c[nH]c2ccccc12)C(=O)N[C@@H](C)c1ccccc1 | 428 | 446 | 465 | 413 | 419 | 421 | – | – | –

Row | Structure (SMILES) | AUC of viability dose-response curve ([1]; HPLM + 10% dialyzed FBS) | AUC of viability dose-response curve ([1]; RPMI 5 mM glucose + 10% FBS) | AUC of viability dose-response curve [1, 4] | AUC of viability dose-response curve ([2]; HPLM + 10% dialyzed FBS) | AUC of viability dose-response curve ([2]; RPMI 5 mM glucose + 10% FBS) | AUC of viability dose-response curve [2, 4] | AUC of viability dose-response curve ([3]; HPLM + 10% dialyzed FBS) | AUC of viability dose-response curve ([3]; RPMI 5 mM glucose + 10% FBS) | AUC of viability dose-response curve [3, 4]
25 | Cc1nnc(C(=O)NC(C)(C)c2nc(C(=O)NCc3ccc(F)cc3)c(O)c(=O)n2C)o1 | 428 | 449 | 470 | 448 | 454 | 465 | 473 | 449 | 465
26 | O=c1oc2cc(O)ccc2s1 | 439 | 448 | 467 | 466 | 446 | 454 | 462 | 447 | 453
27 | CC[C@H](CO)Nc1nc(NCc2ccccc2)c2ncn(C(C)C)c2n1 | 432 | 405 | 427 | 432 | 428 | 428 | 438 | 467 | 440
28 | C=C1CCC2[C@](C)(CO)C(O)CC[C@]2(C)C1C/C=C1/C(=O)OCC1O (stereo partly specified) | 395 | 459 | 453 | 454 | 457 | 448 | 439 | 383 | 420
29 | NC(=O)N1CCC(CC(=O)N2CCC([C@H]3c4ncc(Br)cc4CCc4cc(Cl)cc(Br)c43)CC2)CC1 | 442 | 439 | 432 | 413 | 395 | 410 | 363 | 355 | 395
30 | CN(C)C(=O)[C@H](O)[C@H](Cc1ccccc1)NC(=O)c1cc2cc(Cl)ccc2[nH]1 | 418 | 456 | 435 | 448 | 442 | 456 | 359 | 340 | 359
31 | O=C1\C=C(OC2=C(C=CC=C12)C3=CC=CC4=C3SC5=C4C=CC=C5)\N6CCOCC6 | 474 | 464 | 467 | 471 | 456 | 469 | 446 | 425 | 432
32 | Cc1nc2ccc(CN(C)c3ccc(C(=O)N[C@@H](CCC(=O)O)C(=O)O)s3)cc2c(=O)[nH]1 | 315 | 413 | 305 | 287 | 331 | 321 | 298 | 432 | 295
33 | COCCCC/C(=N\OCCN)c1ccc(C(F)(F)F)cc1 | 358 | 369 | 369 | 400 | 371 | 373 | 389 | 398 | 462
34 | Clc1ccc(CCC(Cn2ccnc2)Sc2c(Cl)cccc2Cl)cc1 (stereo unspecified) | 449 | 402 | 432 | 450 | 444 | 404 | 366 | 422 | 408
35 | NC[C@H](O)c1ccc(O)c(O)c1 | 411 | 452 | 427 | 460 | 457 | 439 | 443 | 453 | 456
36 | CN1CCC(CNc2ccc3ncc(-c4cccc(OC(F)(F)F)c4)n3n2)CC1 | 429 | 399 | 425 | 449 | 435 | 420 | 329 | 334 | 340
37 | N#Cc1cc(NC(=O)Nc2nnc(-c3ccncc3)s2)ccc1-c1cn[nH]c1 | 473 | 476 | 461 | 463 | 452 | 465 | 451 | 462 | 467
38 | CO[C@H]1C[C@@H]2CC[C@@H](C)[C@@](O)(O2)C(=O)C(=O)N2CCCC[C@H]2C(=O)O[C@H]([C@@H](C)C[C@@H]2CC[C@@H](O)[C@H](OC)C2)CC(=O)[C@H](C)/C=C(\C)[C@@H](O)[C@@H](OC)C(=O)[C@H](C)C[C@H](C)/C=C/C=C/C=C/1C | 454 | 442 | 466 | 465 | 415 | 443 | 394 | 382 | 409
39 | OC1=C(Cl)C=C(N\C2=C(\C(=O)NC2=O)C3=C(C=CC=C3)[N+]([O-])=O)C=C1 | 400 | 431 | 427 | 457 | 456 | 459 | 419 | 426 | 434
40 | OC(=O)CNC(=O)\C1=C(/O)C2=CC=CC=C2N(CC3=CC=CC=C3)C1=O | 466 | 430 | 450 | 462 | 456 | 433 | – | – | –
41 | COc1cc(N2CCC(N3CCN(C)CC3)CC2)ccc1Nc1ncc(Cl)c(Nc2ccccc2[S+](=O)([O-])C(C)C)n1 | – | – | – | – | – | – | 284 | 273 | 300
42 | C/C1=C/C(=C(/CNC(=O)C2=CC(=CC3=C2C=N[N]3C4CCCC4)C5=CC=C(CN6CCOCC6)C=C5)C(=O)N1)C | 448 | 456 | 451 | 456 | 462 | 452 | – | – | –
43 | N#CC1(c2cccc(C(=O)Nc3cc(Oc4ccc5nc(NC(=O)C6CC6)sc5n4)ccc3F)c2Cl)CC1 | 344 | 370 | 327 | 372 | 362 | 369 | – | – | –
44 | CC(=O)OCC(=O)[C@@]1(O)CC[C@H]2[C@@H]3CCC/4=C/C(=O)/C=C\[C@]4(C)[C@H]3[C@@H](O)C[C@]12C | 439 | 450 | 472 | – | – | – | 383 | 425 | 428
45 | Clc1ccc(C(c2ccccc2Cl)C(Cl)Cl)cc1 (stereo unspecified) | 427 | 456 | 448 | 452 | 436 | 432 | – | – | –
46 | O=C1c2ccccc2-c2n[nH]c3cccc1c23 | 429 | 433 | 449 | 416 | 401 | 422 | – | – | –
47 | c1ccc2c(CN3CCNCC3)cccc2c1 | 462 | 455 | 456 | – | – | – | 465 | 473 | 454
